{"source": "ChEMBL document CHEMBL3045063", "about": "“Synthesis and cytostatic evaluation of some 2-(5-substituted-2-oxoindolin-3-ylidene)-N-substituted hydrazine carbothioamide” (Med Chem Res, 2011)", "format_in_all_cases": "functional, cell-based", "key": {"MOLT-4": {"tested_on": "MOLT-4", "assay": "Cytostatic activity against Homo sapiens (human) Molt4/C8 cells after 72 hr", "conditions": "MOLT-4, 72 h"}, "CCRF-CEM": {"tested_on": "CCRF-CEM", "assay": "Cytostatic activity against Homo sapiens (human) CEM cells after 72 hr"}, "L1210": {"tested_on": "L1210", "assay": "Cytostatic activity against Mus musculus (mouse) L1210 cells after 48 hr", "conditions": "L1210, 48 h"}}, "data": [{"smiles": "O=C1/C(=N\\NC(=S)Nc2ccc(Cl)cc2)c2cc(Br)ccc2N1Cc1ccc(Cl)cc1", "values": [{"measurement": "IC50", "setting": "MOLT-4", "result": 280, "unit": "µM"}, {"measurement": "IC50", "setting": "CCRF-CEM", "result": 392, "unit": "µM"}, {"measurement": "IC50", "setting": "L1210", "result": "≥ 500", "unit": "µM"}]}, {"smiles": "O=C1Nc2ccc(F)cc2/C1=N/NC(=S)Nc1ccc(Cl)cc1", "values": [{"measurement": "IC50", "setting": "MOLT-4", "result": 14, "unit": "µM"}, {"measurement": "IC50", "setting": "CCRF-CEM", "result": 25, "unit": "µM"}, {"measurement": "IC50", "setting": "L1210", "result": 34, "unit": "µM"}]}, {"smiles": "Cc1ccc(NC(=S)N/N=C2\\C(=O)N(Cc3ccc(F)cc3)c3ccc(F)cc32)cc1", "values": [{"measurement": "IC50", "setting": "MOLT-4", "result": 1.5, "unit": "µM"}, {"measurement": "IC50", "setting": "CCRF-CEM", "result": 2.5, "unit": "µM"}, {"measurement": "IC50", "setting": "L1210", "result": 6.2, "unit": "µM"}]}, {"smiles": "Cc1ccc(CN2C(=O)/C(=N\\NC(=S)Nc3ccc(Cl)cc3)c3cc(Cl)ccc32)cc1", "values": [{"measurement": "IC50", "setting": "MOLT-4", "result": 5.8, "unit": "µM"}, {"measurement": "IC50", "setting": "CCRF-CEM", "result": 18, "unit": "µM"}, {"measurement": "IC50", "setting": "L1210", "result": 9.8, "unit": "µM"}]}, {"smiles": "Cc1ccc(NC(=S)N/N=C2\\C(=O)Nc3cc(Cl)c(F)cc32)cc1", "values": [{"measurement": "IC50", "setting": "MOLT-4", "result": 112, "unit": "µM"}, {"measurement": "IC50", "setting": "CCRF-CEM", "result": 132, "unit": "µM"}, {"measurement": "IC50", "setting": "L1210", "result": 166, "unit": "µM"}]}, {"smiles": "O=C1/C(=N\\NC(=S)Nc2ccc(Cl)cc2)c2cc(Cl)ccc2N1Cc1ccc(Cl)cc1", "values": [{"measurement": "IC50", "setting": "MOLT-4", "result": 58, "unit": "µM"}, {"measurement": "IC50", "setting": "CCRF-CEM", "result": 68, "unit": "µM"}, {"measurement": "IC50", "setting": "L1210", "result": 124, "unit": "µM"}]}, {"smiles": "O=C1/C(=N\\NC(=S)Nc2ccc(Cl)cc2)c2cc(Br)ccc2N1Cc1ccc(F)cc1", "values": [{"measurement": "IC50", "setting": "MOLT-4", "result": 48, "unit": "µM"}, {"measurement": "IC50", "setting": "CCRF-CEM", "result": 61, "unit": "µM"}, {"measurement": "IC50", "setting": "L1210", "result": 196, "unit": "µM"}]}, {"smiles": "O=C1Nc2cc(Cl)c(F)cc2/C1=N/NC(=S)Nc1ccc(Cl)cc1", "values": [{"measurement": "IC50", "setting": "MOLT-4", "result": 43, "unit": "µM"}, {"measurement": "IC50", "setting": "CCRF-CEM", "result": 48, "unit": "µM"}, {"measurement": "IC50", "setting": "L1210", "result": 69, "unit": "µM"}]}, {"smiles": "O=C1Nc2ccc(Cl)cc2/C1=N/NC(=S)Nc1ccc(Cl)cc1", "values": [{"measurement": "IC50", "setting": "MOLT-4", "result": 64, "unit": "µM"}, {"measurement": "IC50", "setting": "CCRF-CEM", "result": 61, "unit": "µM"}, {"measurement": "IC50", "setting": "L1210", "result": 108, "unit": "µM"}]}, {"smiles": "Cc1ccc(CN2C(=O)/C(=N\\NC(=S)Nc3ccc(C)cc3)c3cc(Br)ccc32)cc1", "values": [{"measurement": "IC50", "setting": "MOLT-4", "result": 393, "unit": "µM"}, {"measurement": "IC50", "setting": "CCRF-CEM", "result": "≥ 500", "unit": "µM"}, {"measurement": "IC50", "setting": "L1210", "result": "≥ 500", "unit": "µM"}]}, {"smiles": "Cc1ccc(NC(=S)N/N=C2\\C(=O)N(Cc3ccc(Cl)cc3)c3ccc(Br)cc32)cc1", "values": [{"measurement": "IC50", "setting": "MOLT-4", "result": 288, "unit": "µM"}, {"measurement": "IC50", "setting": "CCRF-CEM", "result": "≥ 500", "unit": "µM"}, {"measurement": "IC50", "setting": "L1210", "result": "≥ 500", "unit": "µM"}]}, {"smiles": "Cc1ccc(CN2C(=O)/C(=N\\NC(=S)Nc3ccc(Cl)cc3)c3cc(Br)ccc32)cc1", "values": [{"measurement": "IC50", "setting": "MOLT-4", "result": 74, "unit": "µM"}, {"measurement": "IC50", "setting": "CCRF-CEM", "result": 98, "unit": "µM"}, {"measurement": "IC50", "setting": "L1210", "result": 193, "unit": "µM"}]}, {"smiles": "Cc1ccc(NC(=S)N/N=C2\\C(=O)N(Cc3ccc(F)cc3)c3ccc(Br)cc32)cc1", "values": [{"measurement": "IC50", "setting": "MOLT-4", "result": 57, "unit": "µM"}, {"measurement": "IC50", "setting": "CCRF-CEM", "result": 132, "unit": "µM"}, {"measurement": "IC50", "setting": "L1210", "result": 190, "unit": "µM"}]}, {"smiles": "Cc1ccc(NC(=S)N/N=C2\\C(=O)Nc3ccc(Br)cc32)cc1", "values": [{"measurement": "IC50", "setting": "MOLT-4", "result": 4.9, "unit": "µM"}, {"measurement": "IC50", "setting": "CCRF-CEM", "result": 6.8, "unit": "µM"}, {"measurement": "IC50", "setting": "L1210", "result": 9.6, "unit": "µM"}]}, {"smiles": "N[C@@H](Cc1ccc(N(CCCl)CCCl)cc1)C(=O)O", "note": "[MELPHALAN]", "values": [{"measurement": "IC50", "setting": "MOLT-4", "result": 3.2, "unit": "µM"}]}, {"smiles": "O=C1/C(=N\\NC(=S)Nc2ccc(Cl)cc2)c2cc(F)ccc2N1Cc1ccc(F)cc1", "values": [{"measurement": "IC50", "setting": "MOLT-4", "result": 47, "unit": "µM"}, {"measurement": "IC50", "setting": "CCRF-CEM", "result": 56, "unit": "µM"}, {"measurement": "IC50", "setting": "L1210", "result": 154, "unit": "µM"}]}, {"smiles": "O=C1Nc2ccc(Br)cc2/C1=N/NC(=S)Nc1ccc(Cl)cc1", "values": [{"measurement": "IC50", "setting": "MOLT-4", "result": 29, "unit": "µM"}, {"measurement": "IC50", "setting": "CCRF-CEM", "result": 61, "unit": "µM"}, {"measurement": "IC50", "setting": "L1210", "result": 88, "unit": "µM"}]}, {"smiles": "O=C1/C(=N\\NC(=S)Nc2ccc(Cl)cc2)c2cc(Cl)ccc2N1Cc1ccc(F)cc1", "values": [{"measurement": "IC50", "setting": "MOLT-4", "result": 48, "unit": "µM"}, {"measurement": "IC50", "setting": "CCRF-CEM", "result": 50, "unit": "µM"}, {"measurement": "IC50", "setting": "L1210", "result": 103, "unit": "µM"}]}, {"smiles": "Cc1ccc(NC(=S)N/N=C2\\C(=O)Nc3ccc(F)cc32)cc1", "values": [{"measurement": "IC50", "setting": "MOLT-4", "result": 3, "unit": "µM"}, {"measurement": "IC50", "setting": "CCRF-CEM", "result": 4.8, "unit": "µM"}, {"measurement": "IC50", "setting": "L1210", "result": 8.2, "unit": "µM"}]}]}
